Reference: patent US10183014B2, “Ocular formulations for drug-delivery and protection of the anterior segment of the eye” (PanOptica, Inc., priority 2014, dated 2019)
Like-named read-outs stand apart in the source and are kept apart here.

Assay: Ocular pharmacokinetics of formulations, Example 20-5
Format: in vivo, Dutch Belted rabbits
Conditions: TRIS 0.60%, glycerol 2%, HEC 0.2%, HPMC 0.08%, Vitamin K3 1 μM, 1 hr post dose on Day 5
Protocol: The study design (Table 19-1) consisted of forty-seven (47) Dutch Belted rabbits, each receiving a 30 μL bilateral topical ocular dose. Various suspension formulations of the present application were evaluated and compared against a cyclodextrin-based eye drops solution (Control Group 1, Table 19-1). Formula II or Compound-I was used in the test suspensions as well as the Eye Drops solution.
Ocular sampling occurred one hour following the first daily dose on Day 5 for all groups. Whole blood samples using K2EDTA as an anticoagulant were collected from all animals on Day 5, 1 hour post dose. The whole blood was placed on ice until samples were spun in a centrifuge to separate the plasma. Aqueous humor, conjunctiva, cornea, central retina, peripheral retina, central choroid, and peripheral choroid samples were collected following necropsy. Samples were then frozen at −70° C. or lower. For all Groups 1-15, plasma, central retina, central choroid, and cornea samples were assayed. For Group 5 only, samples were analyzed for Vitamin K3.
An analytical method for the analysis of Vitamin K3 was determined in plasma, central retina, central choroid, and cornea samples from Group 5 animals. A calibration curve prepared in control vitreous humor was used to determine the concentration of Vitamin K3. Internal standard (IS) responses were inconsistent for the central choroid and plasma samples. Thus, positive plasma results were likely due to the reduced IS response.

Work on `Cl.NC(=O)c1c(OCc2c(F)cc(Br)cc2F)nsc1NC(=O)NCCCCN1CCCC1` [Compound-I, 3-[(4-bromo-2,6-difluorophenyl)methoxy]-5-[[[[4-(1-pyrrolidinyl)butyl]amino]carbonyl]amino]-4-isothiazolecarboxamide hydrochloride] yielded a concentration at 1 h (Dutch Belted, rabbit, plasma, topical, 30 μL per eye, Group 12: 10 mg/mL suspension, 50 μm particles, pH 6, QD for 4 days, read-out: Plasma concentration) of 8.61 nM, a Plasma concentration (Group 2: 4 mg/mL suspension, 30 μm particles, pH 6, QD for 4 days) of 4.64 nM and a concentration at 1 h (Group 2: 4 mg/mL suspension, 30 μm particles, pH 6, QD for 4 days, read-out: Central Choroid concentration) of 135 nM. It also gave a concentration at 1 h (Group 2: 4 mg/mL suspension, 30 μm particles, pH 6, QD for 4 days, read-out: Central Retina concentration) of 50.6 nM, a concentration at 1 h (Group 2: 4 mg/mL suspension, 30 μm particles, pH 6, QD for 4 days, read-out: Cornea concentration) of 7480 nM and a Plasma concentration (Group 3: 4 mg/mL suspension, 3 μm particles, pH 6, QD for 4 days) of 7.04 nM. For the same molecule, the concentration at 1 h (Group 3: 4 mg/mL suspension, 3 μm particles, pH 6, QD for 4 days, read-out: Central Choroid concentration) was 159 nM, the concentration at 1 h (Group 3: 4 mg/mL suspension, 3 μm particles, pH 6, QD for 4 days, read-out: Central Retina concentration) was 92.8 nM and the concentration at 1 h (Group 3: 4 mg/mL suspension, 3 μm particles, pH 6, QD for 4 days, read-out: Cornea concentration) was 10200 nM. It also gave a Plasma concentration (Group 4: 4 mg/mL suspension (Control), 50 μm particles (Native), pH 6, QD for 4 days) of 5.98 nM, a concentration at 1 h (Group 4: 4 mg/mL suspension (Control), 50 μm particles (Native), pH 6, QD for 4 days, read-out: Central Choroid concentration) of 128 nM and a concentration at 1 h (Group 4: 4 mg/mL suspension (Control), 50 μm particles (Native), pH 6, QD for 4 days, read-out: Central Retina concentration) of 73.5 nM. The concentration at 1 h (Group 4: 4 mg/mL suspension (Control), 50 μm particles (Native), pH 6, QD for 4 days, read-out: Cornea concentration) was 3930 nM, the Plasma concentration (Group 6: 4 mg/mL suspension, 50 μm particles, pH 6, BID for 4 days) was 4.15 nM and the concentration at 1 h (Group 6: 4 mg/mL suspension, 50 μm particles, pH 6, BID for 4 days, read-out: Central Choroid concentration) was 199 nM. The concentration at 1 h (Group 6: 4 mg/mL suspension, 50 μm particles, pH 6, BID for 4 days, read-out: Central Retina concentration) was 44.1 nM, the concentration at 1 h (Group 6: 4 mg/mL suspension, 50 μm particles, pH 6, BID for 4 days, read-out: Cornea concentration) was 6410 nM and the Plasma concentration (Group 8: 1 mg/mL suspension, 50 μm particles, pH 6, BID for 4 days) was 2.11 nM. The concentration at 1 h (Group 8: 1 mg/mL suspension, 50 μm particles, pH 6, BID for 4 days, read-out: Central Choroid concentration) was 70.8 nM, the concentration at 1 h (Group 8: 1 mg/mL suspension, 50 μm particles, pH 6, BID for 4 days, read-out: Central Retina concentration) was 34.2 nM and the concentration at 1 h (Group 8: 1 mg/mL suspension, 50 μm particles, pH 6, BID for 4 days, read-out: Cornea concentration) was 1720 nM. The Plasma concentration (Group 10: 2 mg/mL suspension, 50 μm particles, pH 6, BID for 4 days) was 3.76 nM, the concentration at 1 h (Group 10: 2 mg/mL suspension, 50 μm particles, pH 6, BID for 4 days, read-out: Central Retina concentration) was 50.7 nM and the Plasma concentration (Group 13 (different batch of Compound-I): 4 mg/mL suspension, 50 μm particles, pH 6, QD for 4 days) was 7.09 nM. The concentration at 1 h (Group 13 (different batch of Compound-I): 4 mg/mL suspension, 50 μm particles, pH 6, QD for 4 days, read-out: Central Retina concentration) was 76.6 nM, the concentration at 1 h (Group 13 (different batch of Compound-I): 4 mg/mL suspension, 50 μm particles, pH 6, QD for 4 days, read-out: Cornea concentration) was 8550 nM and the Plasma concentration (Group 14 (different batch of Compound-I): 4 mg/mL suspension, 50 μm particles, pH 6, QD for 4 days) was 2.68 nM.
